Molecules are shown by their SMILES. Like-named read-outs stand apart in the source and are kept apart here. Starred links: 1 amine or outer side, 2 acyl side, 3 side chain; linkers in the order of their positions; H or OH if unused. Non-standard residues stand in square brackets, D forms with d. Residues, ends and D or L forms follow the SMILES beside them. Groups on a side chain read outwards from the residue. *: point of attachment. C20 diacid = O=C(O)CCCCCCCCCCCCCCCCCCC(=O)*; γGlu = O=C(O)[C@H](CCC(=O)[*:2])N[*:1]; NMeI = CC[C@H](C)[C@H](NC)C(=O)O; Nle = CCCC[C@H](N)C(=O)O; AEEA = NCCOCCOCC(=O)O; Aib = CC(C)(N)C(=O)O

One assay has as its target T1, hCRHR1 (Homo sapiens, UniProt P34998).
T1 sequence (P34998 24-415): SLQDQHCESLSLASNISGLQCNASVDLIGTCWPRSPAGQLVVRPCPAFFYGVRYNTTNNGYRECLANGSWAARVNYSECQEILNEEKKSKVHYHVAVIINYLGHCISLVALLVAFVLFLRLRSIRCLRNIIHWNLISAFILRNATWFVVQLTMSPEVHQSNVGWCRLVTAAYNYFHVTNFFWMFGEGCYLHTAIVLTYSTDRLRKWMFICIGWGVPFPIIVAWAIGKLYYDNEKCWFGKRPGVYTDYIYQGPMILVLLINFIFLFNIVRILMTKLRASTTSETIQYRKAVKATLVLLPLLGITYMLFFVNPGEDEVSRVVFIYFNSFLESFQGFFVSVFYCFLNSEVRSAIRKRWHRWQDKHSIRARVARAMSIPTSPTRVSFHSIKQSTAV
Description: HTRF cAMP assay, determination of hCRHR1 potency (peptide libraries 5 conc., purified peptides 11 conc.). Type of assay: cell-based. The method in brief:
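CHO-K1 cells stably expressing human CRHR1, thawed from frozen stocks just before use, were stimulated in suspension with agonist peptides. cAMP was measured by HTRF competitive immunoassay (cryptate anti-cAMP antibody vs d2-cAMP).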

Another assay addresses T2, hCRHR2 (Homo sapiens, UniProt Q13324).
T2 sequence (Q13324 1-411): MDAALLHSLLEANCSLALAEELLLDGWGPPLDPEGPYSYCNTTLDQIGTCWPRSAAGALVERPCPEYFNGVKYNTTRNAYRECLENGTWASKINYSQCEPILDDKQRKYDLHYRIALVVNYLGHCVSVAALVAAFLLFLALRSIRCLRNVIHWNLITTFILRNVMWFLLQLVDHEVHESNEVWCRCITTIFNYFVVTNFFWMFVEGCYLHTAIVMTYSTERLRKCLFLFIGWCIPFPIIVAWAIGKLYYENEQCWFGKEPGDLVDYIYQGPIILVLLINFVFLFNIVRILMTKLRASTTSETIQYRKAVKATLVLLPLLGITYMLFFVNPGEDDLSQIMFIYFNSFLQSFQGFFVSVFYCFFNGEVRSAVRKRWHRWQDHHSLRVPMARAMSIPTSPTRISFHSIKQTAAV
Description: HTRF cAMP assay, determination of hCRHR2 potency (peptide libraries 5 conc., purified peptides 11 conc.). Format: cell-based. Put shortly:
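Potency was read as cAMP accumulation in a stable CHO-K1 line expressing human CRHR2, used in suspension right after thawing. Detection relied on energy transfer from antibody-bound cryptate to d2-cAMP.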
Background: In TR-FRET formats the signal depends on donor and acceptor labels being close together.

The mark [1] stands for this setting: Table 4, library peptides having X^38 = Nle, read-out: hCRHR1 pEC50 (converted).
Where [2] appears, read: Table 4, library peptides having X^38 = Nle, read-out: hCRHR2 pEC50 (converted).
[3] abbreviates: Table 3, matched molecular pairs X^38 L vs Nle, peptide library of Example 4, read-out: hCRHR1 pEC50 (converted).
[4] abbreviates: Table 3, matched molecular pairs X^38 L vs Nle, peptide library of Example 4, read-out: hCRHR2 pEC50 (converted).

Regarding `CCCC[C@H](NC(=O)[C@@H](NC(=O)[C@H](CCC(=O)O)NC(=O)[C@H](C)NC(=O)[C@H](CC(N)=O)NC(=O)C(C)(C)NC(=O)[C@H](CCCCNC(=O)COCCOCCNC(=O)COCCOCCNC(=O)CC[C@H](NC(=O)CC[C@H](NC(=O)CCCCCCCCCCCCCCCCCCC(=O)O)C(=O)O)C(=O)O)NC(=O)[C@H](C)NC(=O)[C@H](CCC(N)=O)NC(=O)[C@H](CCC(=O)O)NC(=O)[C@H](CCCNC(=N)N)NC(=O)[C@H](C)NC(=O)[C@H](C)NC(=O)[C@H](CCCNC(=N)N)NC(=O)[C@H](C)NC(=O)[C@H](CCCNC(=N)N)NC(=O)[C@H](C)NC(=O)[C@H](CCC(N)=O)NC(=O)[C@H](C)NC(=O)[C@H](CC(C)C)NC(=O)[C@H](CC(C)C)NC(=O)[C@@H](NC(=O)[C@H](CCC(N)=O)NC(=O)[C@H](CC(C)C)NC(=O)[C@H](CC(C)C)NC(=O)CNC(=O)[C@@H](NC(=O)[C@@H]1CCCN1C(=O)[C@@H](NC(=O)[C@H](CC(=O)O)NC(=O)[C@H](CC(C)C)NC(=O)[C@H](CO)NC(=O)[C@H](CC(C)C)NC(=O)[C@@H](NC(=O)[C@@H](NC)[C@@H](C)CC)C(C)C)C(C)C)[C@@H](C)CC)[C@@H](C)CC)[C@@H](C)CC)C(=O)N[C@@H](C)C(=O)N[C@@H](CCC(=O)O)C(=O)N[C@H](C(N)=O)C(C)C` [compound 119] (H-[NMeI]VLSLDVPIGLLQILLAQARARAAREQAK([AEEA-AEEA-γGlu-γGlu-C20 diacid])[Aib]NAEI[Nle]AEV-NH2), the EC50 at hCRHR1 (setting [1]) is 1000 nM; at hCRHR2 (setting [2]) it was 0.02 nM.

As to `CCCC[C@H](NC(=O)[C@@H](NC(=O)[C@H](CCC(=O)O)NC(=O)[C@H](C)NC(=O)[C@H](CC(N)=O)NC(=O)[C@@H](NC(=O)[C@H](CCCCNC(=O)COCCOCCNC(=O)COCCOCCNC(=O)CC[C@H](NC(=O)CC[C@H](NC(=O)CCCCCCCCCCCCCCCCCCC(=O)O)C(=O)O)C(=O)O)NC(=O)[C@H](C)NC(=O)[C@H](CCC(N)=O)NC(=O)[C@H](CCC(=O)O)NC(=O)[C@H](CCCNC(=N)N)NC(=O)[C@H](C)NC(=O)[C@H](C)NC(=O)[C@H](CCC(N)=O)NC(=O)[C@H](C)NC(=O)[C@H](CCCNC(=N)N)NC(=O)[C@H](C)NC(=O)[C@H](CCC(N)=O)NC(=O)[C@H](CCC(=O)O)NC(=O)[C@H](CC(C)C)NC(=O)[C@H](CC(C)C)NC(=O)[C@@H](NC(=O)[C@H](CCC(N)=O)NC(=O)[C@H](CC(C)C)NC(=O)[C@H](CC(C)C)NC(=O)CNC(=O)[C@@H](NC(=O)[C@@H]1CCCN1C(=O)[C@@H](NC(=O)[C@H](CC(=O)O)NC(=O)[C@H](CC(C)C)NC(=O)[C@H](CO)NC(=O)[C@H](CC(C)C)NC(=O)[C@@H](NC(=O)[C@@H](N)[C@@H](C)CC)C(C)C)C(C)C)[C@@H](C)CC)[C@@H](C)CC)[C@@H](C)O)[C@@H](C)CC)C(=O)N[C@@H](C)C(=O)N[C@@H](CCC(=O)O)C(=O)N[C@H](C(N)=O)C(C)C` [compound 63] (H-IVLSLDVPIGLLQILLEQARAQAAREQAK([AEEA-AEEA-γGlu-γGlu-C20 diacid])TNAEI[Nle]AEV-NH2), the EC50 at hCRHR1 (library peptides, matched molecular pairs L vs Nle in position X^38, read-out: Potency hCRHR1 pEC50 (converted)) was 501 nM; at hCRHR2 (library peptides, matched molecular pairs L vs Nle in position X^38, read-out: Potency hCRHR2 pEC50 (converted)), 0.251 nM.

For `CCCC[C@H](NC(=O)[C@@H](NC(=O)[C@H](CCC(=O)O)NC(=O)[C@H](C)NC(=O)[C@H](CC(N)=O)NC(=O)[C@@H](NC(=O)[C@H](CCCCNC(=O)COCCOCCNC(=O)COCCOCCNC(=O)CC[C@H](NC(=O)CC[C@H](NC(=O)CCCCCCCCCCCCCCCCCCC(=O)O)C(=O)O)C(=O)O)NC(=O)[C@H](C)NC(=O)[C@H](CCC(N)=O)NC(=O)[C@H](CCC(=O)O)NC(=O)[C@H](CCCNC(=N)N)NC(=O)[C@H](C)NC(=O)[C@H](CO)NC(=O)[C@H](CCCNC(=N)N)NC(=O)[C@H](C)NC(=O)[C@H](CCCNC(=N)N)NC(=O)[C@H](C)NC(=O)[C@H](CCC(N)=O)NC(=O)[C@H](CCC(=O)O)NC(=O)[C@H](CC(C)C)NC(=O)[C@H](CC(C)C)NC(=O)[C@@H](NC(=O)[C@H](CCC(N)=O)NC(=O)[C@H](CC(C)C)NC(=O)[C@H](CC(C)C)NC(=O)CNC(=O)[C@@H](NC(=O)[C@@H]1CCCN1C(=O)[C@@H](NC(=O)[C@H](CC(=O)O)NC(=O)[C@H](CC(C)C)NC(=O)[C@H](CO)NC(=O)[C@H](CC(C)C)NC(=O)[C@@H](NC(=O)[C@@H](N)[C@@H](C)CC)C(C)C)C(C)C)[C@@H](C)CC)[C@@H](C)CC)[C@@H](C)O)[C@@H](C)CC)C(=O)N[C@@H](C)C(=O)N[C@@H](CCC(=O)O)C(=O)N[C@H](C(N)=O)[C@@H](C)CC` [SEQ ID NO: 36] (H-IVLSLDVPIGLLQILLEQARARSAREQAK([AEEA-AEEA-γGlu-γGlu-C20 diacid])TNAEI[Nle]AEI-NH2), the EC50 on hCRHR1 (setting [3]) is 5010 nM; on hCRHR2 (setting [4]), 0.158 nM.

On to `CCCC[C@H](NC(=O)[C@@H](NC(=O)[C@H](CCC(=O)O)NC(=O)C(C)(C)NC(=O)[C@H](CC(N)=O)NC(=O)[C@@H](NC(=O)[C@H](CCCCNC(=O)COCCOCCNC(=O)COCCOCCNC(=O)CC[C@H](NC(=O)CC[C@H](NC(=O)CCCCCCCCCCCCCCCCCCC(=O)O)C(=O)O)C(=O)O)NC(=O)[C@H](C)NC(=O)[C@H](CCC(N)=O)NC(=O)[C@H](CCC(=O)O)NC(=O)[C@H](CCCNC(=N)N)NC(=O)[C@H](C)NC(=O)[C@H](C)NC(=O)[C@H](CCCNC(=N)N)NC(=O)[C@H](C)NC(=O)[C@H](CCCNC(=N)N)NC(=O)[C@H](C)NC(=O)[C@H](CCC(N)=O)NC(=O)[C@H](CCCNC(=N)N)NC(=O)[C@H](CC(C)C)NC(=O)[C@H](CC(C)C)NC(=O)[C@@H](NC(=O)[C@H](CCC(N)=O)NC(=O)[C@H](CC(C)C)NC(=O)[C@H](CC(C)C)NC(=O)CNC(=O)[C@@H](NC(=O)[C@@H]1CCCN1C(=O)[C@@H](NC(=O)[C@H](CC(=O)O)NC(=O)[C@H](CC(C)C)NC(=O)[C@H](CO)NC(=O)[C@H](CC(C)C)NC(=O)[C@@H](NC(=O)[C@@H](NC)[C@@H](C)CC)C(C)C)C(C)C)[C@@H](C)CC)[C@@H](C)CC)[C@@H](C)O)[C@@H](C)CC)C(=O)N[C@@H](C)C(=O)N[C@@H](CCC(=O)O)C(=O)N[C@H](C(N)=O)C(C)C` [compound 198] (H-[NMeI]VLSLDVPIGLLQILLRQARARAAREQAK([AEEA-AEEA-γGlu-γGlu-C20 diacid])TN[Aib]EI[Nle]AEV-NH2), for which the EC50 is 63100 nM at hCRHR1 (setting [1]) and 0.0316 nM at hCRHR2 (setting [2]).

`CC[C@H](C)[C@H](N)C(=O)N[C@H](C(=O)N[C@@H](CC(C)C)C(=O)N[C@@H](CO)C(=O)N[C@@H](CC(C)C)C(=O)N[C@@H](CC(=O)O)C(=O)N[C@H](C(=O)N1CCC[C@H]1C(=O)N[C@H](C(=O)NCC(=O)N[C@@H](CC(C)C)C(=O)N[C@@H](CC(C)C)C(=O)N[C@@H](CCC(N)=O)C(=O)N[C@H](C(=O)N[C@@H](CC(C)C)C(=O)N[C@@H](CC(C)C)C(=O)N[C@@H](CCC(=O)O)C(=O)N[C@@H](CCC(N)=O)C(=O)N[C@@H](C)C(=O)N[C@@H](CCCNC(=N)N)C(=O)N[C@@H](C)C(=O)N[C@@H](CCCNC(=N)N)C(=O)N[C@@H](C)C(=O)N[C@@H](CCC(N)=O)C(=O)N[C@@H](CCCNC(=N)N)C(=O)N[C@@H](CCC(=O)O)C(=O)N[C@@H](CCC(=O)O)C(=O)N[C@@H](C)C(=O)N[C@@H](CCCCNC(=O)COCCOCCNC(=O)COCCOCCNC(=O)CC[C@H](NC(=O)CC[C@H](NC(=O)CCCCCCCCCCCCCCCCCCC(=O)O)C(=O)O)C(=O)O)C(=O)N[C@H](C(=O)N[C@@H](CC(N)=O)C(=O)N[C@@H](C)C(=O)N[C@@H](CCC(=O)O)C(=O)N[C@H](C(=O)N[C@@H](CC(C)C)C(=O)N[C@@H](C)C(=O)N[C@@H](CCC(=O)O)C(=O)N[C@H](C(N)=O)C(C)C)[C@@H](C)CC)[C@@H](C)O)[C@@H](C)CC)[C@@H](C)CC)C(C)C)C(C)C` [SEQ ID NO: 33] (H-IVLSLDVPIGLLQILLEQARARAQREEAK([AEEA-AEEA-γGlu-γGlu-C20 diacid])TNAEILAEV-NH2): the EC50 is 126000 nM on hCRHR1 (setting [3]) and 1.26 nM at hCRHR2 (setting [4]).

The values above are taken from patent publication EP4810052A2, “HCRHR2 SELECTIVE POLYPEPTIDES” (Gubra A/S, priority 2023, dated 2026).
